Experimental data published in patent publication US8629180B2, “Antiseptic agent composition” (Taiyo Corporation, priority 2009, dated 2014).

Experiments:
S. aureus = experiment: Antiseptic and bactericidal effect found by the applicant (background); type: cell-based; settings: background statement, the present applicant has found
E. coli = experiment: as above; type: cell-based; settings: background statement, the present applicant has found

For glycerin ricinoleic acid monoester, the “antiseptic and bactericidal effects on S. aureus (in words)” value (S. aureus) was “exerts antiseptic and bactericidal effects” and the “antiseptic and bactericidal effect on E. coli (in words)” value (E. coli) was “almost no antiseptic and bactericidal effect”.
